Structures can show the parent of a compound that is named as a salt.
System: Aβ42 levels (γ-secretase modulation) in SHSY5Y-APP cells
Experiment: Cell-based ELISA assay for measuring extracellular Aβ42 levels
Set-up: species or system human
Conditions: for Loss in activity (Aβ42) versus the parent fluorophenyl compound: ratio of Aβ42 IC50 values

SMILES: CCn1nc2c(c1Nc1nc(-c3ccc(-n4cnc(C)c4)c(OC)n3)cs1)C(C)CC2(C)C (racemic) [Compound 72, (+/−)-N-(2-ethyl-4,6,6-trimethyl-2,4,5,6-tetrahydrocyclopenta[c]pyrazol-3-yl)-4-(6-methoxy-5-(4-methyl-1H-imidazol-1-yl)pyridin-2-yl)thiazol-2-amine]
- Parent Aβ42 IC50: 49 nM

SMILES: COc1nc(-c2csc(Nc3c4c(nn3C3CCCC3)CCCC4)n2)ccc1-n1cnc(C)c1 [Compound 38, N-(2-cyclopentyl-4,5,6,7-tetrahydro-2H-indazol-3-yl)-4-(6-methoxy-5-(4-methyl-1H-imidazol-1-yl)pyridin-2-yl)thiazol-2-amine]
- Parent Aβ42 IC50: 225 nM

SMILES: CCCn1nc(C(C)(C)C)cc1Nc1nc(-c2ccc(-n3cnc(C)c3)c(OC)n2)cs1 [Compound 53, N-(3-(tert-butyl)-1-propyl-1H-pyrazol-5-yl)-4-(6-methoxy-5-(4-methyl-1H-imidazol-1-yl)pyridin-2-yl)thiazol-2-amine dihydrochloride]
- Parent Aβ42 IC50: 86 nM

SMILES: COc1nc(-c2csc(Nc3c4c(nn3C(C)(C)C)CCC4)n2)ccc1-n1cnc(C)c1 [Compound 66, N-(2-(tert-butyl)-2,4,5,6-tetrahydrocyclopenta[c]pyrazol-3-yl)-4-(6-methoxy-5-(4-methyl-1H-imidazol-1-yl)pyridin-2-yl)thiazol-2-amine]
- Parent Aβ42 IC50: 175 nM

SMILES: CCCn1nc2c(c1Nc1nc(-c3ccc(-n4cnc(C)c4)c(OC)n3)cs1)CCCC2 [Compound 34, 4-(6-methoxy-5-(4-methyl-1H-imidazol-1-yl)pyridin-2-yl)-N-(2-propyl-4,5,6,7-tetrahydro-2H-indazol-3-yl)thiazol-2-amine]
- Parent Aβ42 IC50: 148 nM

SMILES: COc1nc(-c2csc(Nc3c4c(nn3CCO)CCCC4)n2)ccc1-n1cnc(C)c1 [Compound 49, 2-(3-((4-(6-methoxy-5-(4-methyl-1H-imidazol-1-yl)pyridin-2-yl)thiazol-2-yl)amino)-4,5,6,7-tetrahydro-2H-indazol-2-yl)ethanol]
- Parent Aβ42 IC50: 362 nM

SMILES: COc1nc(-c2csc(Nc3c4c(nn3CC(F)(F)F)CCCC4)n2)ccc1-n1cnc(C)c1 [Compound 47, 4-(6-methoxy-5-(4-methyl-1H-imidazol-1-yl)pyridin-2-yl)-N-(2-(2,2,2-trifluoroethyl)-4,5,6,7-tetrahydro-2H-indazol-3-yl)thiazol-2-amine]
- Parent Aβ42 IC50: 179 nM

SMILES: CCn1nccc1Nc1nc(-c2ccc(-n3cnc(C)c3)c(OC)n2)cs1 [Compound 74, N-(1-ethyl-1H-pyrazol-5-yl)-4-(6-methoxy-5-(4-methyl-1H-imidazol-1-yl)pyridin-2-yl)thiazol-2-amine]
- Parent Aβ42 IC50: >1000 nM

SMILES: COc1nc(-c2csc(Nc3c4c(nn3CCCN3CCOCC3)CCCC4)n2)ccc1-n1cnc(C)c1 [Compound 45, 4-(6-methoxy-5-(4-methyl-1H-imidazol-1-yl)pyridin-2-yl)-N-(2-(3-morpholinopropyl)-4,5,6,7-tetrahydro-2H-indazol-3-yl)thiazol-2-amine]
- Parent Aβ42 IC50: 270 nM

SMILES: COc1nc(-c2csc(Nc3c4c(nn3C3CCOCC3)CCCC4)n2)ccc1-n1cnc(C)c1 [Compound 41, 4-(6-methoxy-5-(4-methyl-1H-imidazol-1-yl)pyridin-2-yl)-N-(2-(tetrahydro-2H-pyran-4-yl)-4,5,6,7-tetrahydro-2H-indazol-3-yl)thiazol-2-amine]
- Parent Aβ42 IC50: 766 nM

SMILES: COc1nc(-c2csc(Nc3c4c(nn3C3CCC3)CCCC4)n2)ccc1-n1cnc(C)c1 [Compound 37, N-(2-cyclobutyl-4,5,6,7-tetrahydro-2H-indazol-3-yl)-4-(6-methoxy-5-(4-methyl-1H-imidazol-1-yl)pyridin-2-yl)thiazol-2-amine]
- Parent Aβ42 IC50: 99 nM

SMILES: COc1nc(-c2csc(Nc3c4c(nn3CCN3CCOCC3)CCCC4)n2)ccc1-n1cnc(C)c1 [Compound 44, 4-(6-methoxy-5-(4-methyl-1H-imidazol-1-yl)pyridin-2-yl)-N-(2-(2-morpholinoethyl)-4,5,6,7-tetrahydro-2H-indazol-3-yl)thiazol-2-amine trihydrochloride]
- Parent Aβ42 IC50: >1000 nM

SMILES: COc1nc(-c2csc(Nc3c4c(nn3C3CCC3)CCC4)n2)ccc1-n1cnc(C)c1 [Compound 67, N-(2-cyclobutyl-2,4,5,6-tetrahydrocyclopenta[c]pyrazol-3-yl)-4-(6-methoxy-5-(4-methyl-1H-imidazol-1-yl)pyridin-2-yl)thiazol-2-amine]
- Parent Aβ42 IC50: 92 nM

SMILES: COc1nc(-c2csc(Nc3cc(C(F)(F)F)nn3CC(F)(F)F)n2)ccc1-n1cnc(C)c1 [Compound 62, 4-(6-methoxy-5-(4-methyl-1H-imidazol-1-yl)pyridin-2-yl)-N-(1-(2,2,2-trifluoroethyl)-3-(trifluoromethyl)-1H-pyrazol-5-yl)thiazol-2-amine]
- Parent Aβ42 IC50: 771 nM

SMILES: CCn1nc(C(C)(C)C)cc1Nc1nc(-c2ccc(-n3cnc(C)c3)cc2)cs1 [Compound 33a]
- Loss in activity (Aβ42) versus the parent fluorophenyl compound: greater than 2 fold

SMILES: Cc1cn(-c2ccc(-c3csc(Nc4c5c(nn4C)CCCC5)n3)cc2)cn1 [Compound 31a]
- Loss in activity (Aβ42) versus the parent fluorophenyl compound: greater than 2 fold

SMILES: COc1nc(-c2csc(Nc3c4c(nn3CCCO)CCCC4)n2)ccc1-n1cnc(C)c1 [Compound 50, 3-(3-((4-(6-methoxy-5-(4-methyl-1H-imidazol-1-yl)pyridin-2-yl)thiazol-2-yl)amino)-4,5,6,7-tetrahydro-2H-indazol-2-yl)propan-1-ol]
- Parent Aβ42 IC50: 229 nM

SMILES: COc1nc(-c2csc(Nc3cc(C(C)(C)C)nn3CC(F)(F)F)n2)ccc1-n1cnc(C)c1 [Compound 57, N-(3-(tert-butyl)-1-(2,2,2-trifluoroethyl)-1H-pyrazol-5-yl)-4-(6-methoxy-5-(4-methyl-1H-imidazol-1-yl)pyridin-2-yl)thiazol-2-amine]
- Parent Aβ42 IC50: 87 nM

SMILES: COc1nc(-c2csc(Nc3cc(C(C)(C)C)nn3C(C)(C)C)n2)ccc1-n1cnc(C)c1 [Compound 55, N-(1,3-di-tert-butyl-1H-pyrazol-5-yl)-4-(6-methoxy-5-(4-methyl-1H-imidazol-1-yl)pyridin-2-yl)thiazol-2-amine]
- Parent Aβ42 IC50: 85 nM

SMILES: COc1nc(-c2csc(Nc3c4c(nn3C(C)(C)C)CCCC4)n2)ccc1-n1cnc(C)c1 [Compound 36, N-(2-(tert-butyl)-4,5,6,7-tetrahydro-2H-indazol-3-yl)-4-(6-methoxy-5-(4-methyl-1H-imidazol-1-yl)pyridin-2-yl)thiazol-2-amine]
- Parent Aβ42 IC50: 216 nM

SMILES: COc1nc(-c2csc(Nc3c4c(nn3C(C)C)CCC4)n2)ccc1-n1cnc(C)c1 [Compound 65, N-(2-isopropyl-2,4,5,6-tetrahydrocyclopenta[c]pyrazol-3-yl)-4-(6-methoxy-5-(4-methyl-1H-imidazol-1-yl)pyridin-2-yl)thiazol-2-amine]
- Parent Aβ42 IC50: 66 nM

SMILES: COc1nc(-c2csc(Nc3cc(C(C)(C)C)nn3C(C)C)n2)ccc1-n1cnc(C)c1 [Compound 54, N-(3-(tert-butyl)-1-isopropyl-1H-pyrazol-5-yl)-4-(6-methoxy-5-(4-methyl-1H-imidazol-1-yl)pyridine-2-yl)thiazol-2-amine]
- Parent Aβ42 IC50: 87 nM

SMILES: COc1nc(-c2csc(Nc3c4c(nn3CCO)CCC4)n2)ccc1-n1cnc(C)c1 [Compound 70, 2-(3-((4-(6-methoxy-5-(4-methyl-1H-imidazol-1-yl)pyridin-2-yl)thiazol-2-yl)amino)-5,6-dihydrocyclopenta[c]pyrazol-2(4H)-yl)ethanol]
- Parent Aβ42 IC50: >1000 nM

SMILES: CCn1nc2c(c1N(C)c1nc(-c3ccc(-n4cnc(C)c4)c(OC)n3)cs1)CCCC2 [Compound 52, N-(2-ethyl-4,5,6,7-tetrahydro-2H-indazol-3-yl)-4-(6-methoxy-5-(4-methyl-1H-imidazol-1-yl)pyridin-2-yl)-N-methylthiazol-2-amine]
- Parent Aβ42 IC50: >1000 nM

SMILES: COc1nc(-c2csc(Nc3c4c(nn3C3CCCCC3)CCCC4)n2)ccc1-n1cnc(C)c1 [Compound 39, N-(2-cyclohexyl-4,5,6,7-tetrahydro-2H-indazol-3-yl)-4-(6-methoxy-5-(4-methyl-1H-imidazol-1-yl)pyridin-2-yl)thiazol-2-amine]
- Parent Aβ42 IC50: 280 nM

SMILES: COc1nc(-c2csc(Nc3c4c(nn3CCN3CCCCC3)CCCC4)n2)ccc1-n1cnc(C)c1 [Compound 43, 4-(6-methoxy-5-(4-methyl-1H-imidazol-1-yl)pyridin-2-yl)-N-(2-(2-(piperidin-1-yl)ethyl)-4,5,6,7-tetrahydro-2H-indazol-3-yl)thiazol-2-amine]
- Parent Aβ42 IC50: 475 nM

SMILES: COCCn1nc2c(c1Nc1nc(-c3ccc(-n4cnc(C)c4)c(OC)n3)cs1)CCCC2 [Compound 48, 4-(6-methoxy-5-(4-methyl-1H-imidazol-1-yl)pyridin-2-yl)-N-(2-(2-methoxyethyl)-4,5,6,7-tetrahydro-2H-indazol-3-yl)thiazol-2-amine]
- Parent Aβ42 IC50: 272 nM

SMILES: CCn1nc2c(c1Nc1nc(-c3ccc(-n4cnc(C)c4)cc3)cs1)CCCC2 [Compound 22a]
- Loss in activity (Aβ42) versus the parent fluorophenyl compound: greater than 4 fold

SMILES: COc1nc(-c2csc(Nc3c4c(nn3CC(F)(F)F)CCC4)n2)ccc1-n1cnc(C)c1 [Compound 69, 4-(6-methoxy-5-(4-methyl-1H-imidazol-1-yl)pyridin-2-yl)-N-(2-(2,2,2-trifluoroethyl)-2,4,5,6-tetrahydrocyclopenta[c]pyrazol-3-yl)thiazol-2-amine]
- Parent Aβ42 IC50: 94 nM

SMILES: CCn1nc2c(c1Nc1nc(-c3ccc(-n4cnc(C)c4)c(OC)n3)cs1)CCCCC2 [Compound 73, N-(2-ethyl-2,4,5,6,7,8-hexahydrocyclohepta[c]pyrazol-3-yl)-4-(6-methoxy-5-(4-methyl-1H-imidazol-1-yl)pyridin-2-yl)thiazol-2-amine]
- Parent Aβ42 IC50: 114 nM

SMILES: CCn1nc(C(C)C)cc1Nc1nc(-c2ccc(-n3cnc(C)c3)c(OC)n2)cs1 [Compound 58, N-(1-ethyl-3-isopropyl-1H-pyrazol-5-yl)-4-(6-methoxy-5-(4-methyl-1H-imidazol-1-yl)pyridin-2-yl)thiazol-2-amine]
- Parent Aβ42 IC50: 394 nM

SMILES: COc1nc(-c2csc(Nc3c4c(nn3CC(C)(C)O)CCCC4)n2)ccc1-n1cnc(C)c1 [Compound 51, 1-(3-((4-(6-methoxy-5-(4-methyl-1H-imidazol-1-yl)pyridin-2-yl)thiazol-2-yl)amino)-4,5,6,7-tetrahydro-2H-indazol-2-yl)-2-methylpropan-2-ol]
- Parent Aβ42 IC50: 55 nM
